These results are taken from patent publication US5578620A, “Thiazolidine and oxazolidine derivatives, their preparation and their medical use” (Sankyo Company, Limited, priority 1994, dated 1996).

The target of the experiment is T1, Bovine lens aldose reductase (Bos taurus, UniProt P16116).
T1 construct: Bovine lens aldose reductase was separated and partially purified; from tissue; host or cells: bovine lens
The experiment can be described thus: Inhibition of Aldose reductase. The following applies: for inhibition at 5 µg/mL: read-out: Inhibition at 5 μg/ml. The experiment is classed as biochemical. As to the method: Bovine lens aldose reductase was separated and partially purified by the method of S. Hyman and J. H. Kinoshita [J. Biol. Chem., 240, 877 (1965)] and K. Inagaki, I. Miwa and J. Okuda [Arch. Biochem. Biophys., 316, 337 (1982)], and its activity was determined photometrically by the method of Varma et al. [Biochem. Pharmac., 25, 2505 (1976)]. […]

A word on the IC50: it is the point on the concentration scale where inhibition reaches its midpoint.

Consider `CC(CSc1ccc(CC2SC(=O)NC2=O)cc1)N1CC(COc2cccc(Cl)c2)OC1=O` (single isomer, unassigned) [10 (less polar), 5-{4-[2-(5-3'-Chlorophenoxymethyl-2-oxooxazolidin-3-yl)propylthio]benzyl}thiazolidine-2,4-dione], for which the IC50 was 3940 nM and the inhibition at 5 µg/mL was determined as 60.1%.

For the compound `CC(COc1ccc(CC2SC(=O)NC2=O)cc1)N1CC(COCCCCc2ccccc2)OC1=O` (centres unmarked) [25 (polar), 5-{4-[2-(5-4'-Phenylbutoxymethyl-2-oxooxazolidin-3-yl)propoxy]benzyl}thiazolidine-2,4-dione], it took 429 nM to reach half-maximal inhibition (IC50) and the inhibition at 5 µg/mL was 82%.

In the case of `CC(COc1ccc(CC2SC(=O)NC2=O)cc1)N1CC(COCc2cccc(Cl)c2)OC1=S` (centres unmarked) [Example 43, 5-{4-[2-(5-3'-Chlorobenzyloxymethyl-2-thioxooxazolidin-3-yl)propoxy]benzyl}thiazolidine-2,4-dione], the half-inhibitory concentration (IC50) was 1170 nM and the inhibition at 5 µg/mL was found to be 65.9%.

Take `CC(COc1ccc(CC2SC(=O)NC2=O)cc1)NCC(O)COCCCCCc1ccccc1` (centres unmarked) [Example 16, 5-{4-[2-(3-5'-Phenylpentyloxy-2-hydroxypropylamino)propoxy]benzyl}thiazolidine-2,4-dione]: the IC50 was 6590 nM and the inhibition at 5 µg/mL is 59.2%.

For `CC(COc1ccc(CC2SC(=O)NC2=O)cc1)N1CC(COCCCc2ccccc2)OC1=O` (single isomer, unassigned) [24 (less polar), 5-{4-[2-(5-3'-Phenylpropoxymethyl-2-oxooxazolidin-3-yl)propoxy]benzyl}thiazolidine-2,4-dione], 1970 nM corresponded to half-maximal inhibition (IC50) and the inhibition at 5 µg/mL amounted to 71.7%.

For `CC(COc1ccc(CC2SC(=O)NC2=O)cc1)N1CC(COCc2cccc(Cl)c2)OC1=O` (centres unmarked) [Example 42, 5-{4-[2-(5-3'-Chlorobenzyloxymethyl-2-oxooxazolidin-3-yl)propoxy]benzyl}thiazolidine-2,4-dione], the concentration for half-maximal inhibition (IC50) was 1880 nM and the inhibition at 5 µg/mL came to 74%.

As for `CC(COc1ccc(CC2SC(=O)NC2=O)cc1)N1CC(COc2ccccc2)OC1=O` (centres unmarked) [Example 4, 5-{4-[2-(5-Phenoxymethyl-2-oxooxazolidin-3-yl)propoxy]benzyl}thiazolidine-2,4-dione], the IC50 was 2410 nM and the inhibition at 5 µg/mL was 84.5%.

With `CC(COc1ccc(CC2SC(=O)NC2=O)cc1)NCC(O)COc1cccc(N(C)C)c1` (centres unmarked) [Example 32, 5-{4-[2-(3-3'-Dimethylaminophenoxy-2-hydroxypropylamino)propoxy]benzyl}thiazolidine-2,4-dione], the IC50 is 6120 nM and the inhibition at 5 µg/mL is 54.6%.

In the case of `CC(COc1ccc(CC2SC(=O)NC2=O)cc1)N1CC(COc2cccc(N(C)C)c2)OC1=O` (centres unmarked) [Example 33, 5-{4-[2-(5-3'-Dimethylaminophenoxymethyl-2-oxooxazolidin-3-yl)propoxy]benzyl}thiazolidine-2,4-dione], the 50% inhibitory concentration (IC50) is 641 nM and the inhibition at 5 µg/mL is 85.5%.

For the compound `CC(CSc1ccc(CC2SC(=O)NC2=O)cc1)N1CC(COc2cccc(Cl)c2)OC1=O` (centres unmarked) [10 (polar), 5-{4-[2-(5-3'-Chlorophenoxymethyl-2-oxooxazolidin-3-yl)propylthio]benzyl}thiazolidine-2,4-dione], half-maximal inhibition (IC50) was put at 789 nM and the inhibition at 5 µg/mL came out at 88.3%.

For `CC(COc1ccc(CC2SC(=O)NC2=O)cc1)N1CC(COCCCCCc2ccccc2)OC1=O` (centres unmarked) [Example 26, 5-{4-[2-(5-5'-Phenylpentyloxymethyl-2-oxooxazolidin-3-yl)propoxy]benzyl}thiazolidine-2,4-dione], the midpoint of inhibition, the IC50, lay at 1040 nM and the inhibition at 5 µg/mL turned out to be 74.2%.

Regarding `CCC(COc1ccc(CC2SC(=O)NC2=O)cc1)NCC(O)COc1cccc(Cl)c1` (centres unmarked) [Example 46, 5-{4-[2-(3-3'-Chlorophenoxy-2-hydroxypropylamino)butoxy]benzyl}thiazolidine-2,4-dione], 6050 nM corresponded to half-maximal inhibition (IC50) and the inhibition at 5 µg/mL is 61%.

As for `CC(COc1ccc(CC2SC(=O)NC2=O)cc1)NCC(O)COc1ccc(-c2ccccc2)cc1` (centres unmarked) [Example 34, 5-{4-[2-(3-4'-Phenylphenoxy-2-hydroxypropylamino)propoxy]benzyl}thiazolidine-2,4-dione], it took 3750 nM to reach half-maximal inhibition (IC50) and the inhibition at 5 µg/mL came to 62%.

In the case of `COc1ccc(OCC2CN(C(C)COc3ccc(CC4SC(=O)NC4=O)cc3)C(=O)O2)cc1` (centres unmarked) [31 (polar), 5-{4-[2-(5-4'-Methoxyphenoxymethyl-2-oxooxazolidin-3-yl)propoxy]benzyl}thiazolidine-2,4-dione], the half-inhibitory concentration (IC50) is 863 nM and the inhibition at 5 µg/mL was 88.1%.

For `CC(COc1ccc(CC2SC(=O)NC2=O)cc1)NCC(O)COc1cccc(Cl)c1` (centres unmarked) [Example 2, 5-{4-[2-(3-3'-Chlorophenoxy-2-hydroxypropylamino)propoxy]benzyl}thiazolidine-2,4-dione], the IC50 is 6020 nM and the inhibition at 5 µg/mL was 63.2%.

As to `CC(COc1ccc(CC2SC(=O)NC2=O)cc1)N1CC(COc2ccccc2)OC1=S` (centres unmarked) [Example 49, 5-{4-[2-(5-Phenoxymethyl-2-thioxooxaolidin-3-yl)propoxy]benzyl}thiazolidine-2,4-dione], 1040 nM corresponded to half-maximal inhibition (IC50) and the inhibition at 5 µg/mL turned out to be 77.8%.

Turning to `CC(COc1ccc(CC2SC(=O)NC2=O)cc1)N1CC(COCCCCCCc2ccccc2)OC1=O` (centres unmarked) [Example 27, 5-{4-[2-(5-6'-Phenylhexyloxymethyl-2-oxooxazolidin-3-yl)propoxy]benzyl}thiazolidine-2,4-dione], inhibition was half-maximal at 3510 nM (IC50) and the inhibition at 5 µg/mL was 54.9%.

In the case of `CC(COc1ccc(CC2SC(=O)NC2=O)cc1)NCC(O)COCCCCCCCCc1ccccc1` (centres unmarked) [Example 21, 5-{4-[2-(3-8'-Phenyloctyloxy-2-hydroxypropylamino)propoxy]benzyl}thiazolidine-2,4-dione], 4610 nM corresponded to half-maximal inhibition (IC50) and the inhibition at 5 µg/mL is 58.7%.

As to `O=C1NC(=O)C(Cc2ccc(OCCCN3CC(COc4ccccc4)OC3=O)cc2)S1` (centres unmarked) [Example 53, 5-{4-[3-(5-Phenoxymethyl-2-oxooxazolidin-3-yl)propoxy]benzyl}thiazolidine-2,4-dione], the IC50 is 2410 nM and the inhibition at 5 µg/mL was 77.6%.

For `CC(COc1ccc(CC2SC(=O)NC2=O)cc1)N1CC(CN(C)c2ccccc2)OC1=O` (centres unmarked) [Example 40, 5-[4-{2-[5-(N-Methyl-N-phenylaminomethyl)-2-oxooxazolidin-3-yl]propoxy}benzyl]thiazolidine-2,4-dione], the IC50 is 1850 nM and the inhibition at 5 µg/mL worked out at 80.9%.

Regarding `CC(COc1ccc(CC2SC(=O)NC2=O)cc1)NCC(O)CSc1ccccc1` (centres unmarked) [Example 37, 5-{4-[2-(3-Phenylthio-2-hydroxypropylamino)propoxy]benzyl}thiazolidine-2,4-dione], the IC50 was 8730 nM and the inhibition at 5 µg/mL came out at 55.2%.

`CC(COc1ccc(CC2SC(=O)NC2=O)cc1)N1CCOC(COc2cccc(Cl)c2)C1` (centres unmarked) [Example 55, 5-{4-[2-(2-3'-Chlorophenoxymethylmorpholino)propoxy]benzyl}thiazolidine-2,4-dione]: half-maximal inhibition (IC50) was put at 2850 nM and the inhibition at 5 µg/mL is 62.7%.

In the case of `CC(C)(COc1ccc(CC2SC(=O)NC2=O)cc1)N1CC(COc2cccc(Cl)c2)OC1=O` (centres unmarked) [Example 52, 5-{4-[2-(5,3'-Chlorophenoxymethyl-2-oxooxazolidin-3-yl)-2-methylpropoxy]benzyl}thiazolidine-2,4-dione], the IC50 was 1860 nM and the inhibition at 5 µg/mL was 72.8%.

`CC(COc1ccc(CC2SC(=O)NC2=O)cc1)N1CC(Cc2ccccc2)OC1=O` (centres unmarked) [Example 8, 5-{4-[2-(5-Benzyl-2-oxooxazolidin-3-yl)propoxy]benzyl}thiazolidine-2,4-dione]: the IC50 is 4990 nM and the inhibition at 5 µg/mL worked out at 67.2%.

Turning to `CC(COc1ccc(CC2SC(=O)NC2=O)cc1)N1CC(CSc2ccccc2)OC1=O` (centres unmarked) [Example 38, 5-{4-[2-(5-Phenylthiomethyl-2-oxooxazolidin-3-yl)propoxy]benzyl}thiazolidine-2,4-dione], the IC50 was 1500 nM and the inhibition at 5 µg/mL was found to be 80.1%.

Compound `CCCC(COc1ccc(CC2SC(=O)NC2=O)cc1)N1CC(COc2cccc(Cl)c2)OC1=O` (centres unmarked) [Example 50, 5-{4-[2-(5-3'-Chlorophenoxymethyl-2-oxooxazolidin-3-yl)pentyloxy]benzyl}thiazolidine-2,4-dione] showed an IC50 of 617 nM.

As to `O=C1NC(=O)C(Cc2ccc(OCCCCN3CC(COc4cccc(Cl)c4)OC3=O)cc2)S1` (centres unmarked) [Example 54, 5-{4-[4-(5-3'-Chlorophenoxymethyl-2-oxooxazolidin-3-yl)butoxy]benzyl}thiazolidine-2,4-dione], the IC50 is 1980 nM and the inhibition at 5 µg/mL is 69.1%.

With `CC(COc1ccc(CC2SC(=O)NC2=O)cc1)N1CC(COCCCCc2ccccc2)OC1=O` (single isomer, unassigned) [25 (less polar), 5-{4-[2-(5-4'-Phenylbutoxymethyl-2-oxooxazolidin-3-yl)propoxy]benzyl}thiazolidine-2,4-dione], it took 3900 nM to reach half-maximal inhibition (IC50) and the inhibition at 5 µg/mL is 57.1%.

Consider `CCC(COc1ccc(CC2SC(=O)NC2=O)cc1)N1CC(COc2cccc(Cl)c2)OC1=O` (single isomer, unassigned) [47 (less polar), 5-{4-[2-(5-3'-Chlorophenoxymethyl-2-oxooxazolidin-3-yl)butoxy]benzyl}thiazolidine-2,4-dione], for which half-maximal inhibition (IC50) was put at 3170 nM and the inhibition at 5 µg/mL worked out at 57.6%.

As to `CC(COc1ccc(CC2SC(=O)NC2=O)cc1)N1CC(COc2cccc(F)c2)OC1=O` (centres unmarked) [Example 30, 5-{4-[2-(5-3'-Fluorophenoxymethyl-2-oxooxazolidin-3-yl)propoxy]benzyl}thiazolidine-2,4-dione], the half-maximal inhibitory concentration (IC50) was 3790 nM and the inhibition at 5 µg/mL came to 68.6%.
